Source: patent publication US9499550B2 (BRISTOL-MYERS SQUIBB COMPANY, priority 2012, dated 2016)
pEC50: −log10 of the molar value. Read-outs that look alike come from different tables or passages of the source.

Tests used:
[1] = tested on: HCV genotype 1b (Con1) replicon in HUH-7 cells; assay: HCV replicon luciferase reporter assay, genotype 1b; assay type: cell-based; details: Hepatitis C virus, Huh-7, 72 h, 3 days incubation
How it was run: (§1)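 Replicon inhibition for both genotypes was measured as Renilla luciferase signal (EnduRen, 7.5 μM final, 2 h) after 3-day, 37° C exposure of replicon-bearing HUH-7 cells in 4% FCS DMEM, 0.5% DMSO. The 1b construct carries S1179I; the 1a H77 construct carries P1496L and S2204I. Twenty-point, 3-fold dilutions were fitted four-parametrically for EC50, and CC50 was taken from multiplexed Cell Titer-Blue.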

[2] = tested on: HCV genotype 1a (H77 strain) replicon in HUH-7 cells; assay: HCV replicon luciferase reporter assay, genotype 1a; assay type: cell-based; details: Hepatitis C virus, Huh-7, 72 h, 3 days incubation
How it was run: as §1

[3] = HCV genotype 1b replicon luciferase assay, range class, read-out: LE_1b (EC50, range)
[4] = HCV genotype 1a replicon luciferase assay, range class, read-out: LE_1a (EC50, range)
[5] = HCV genotype 1b replicon luciferase assay, read-out: LE_1b (EC50)
[6] = HCV genotype 1a replicon luciferase assay, read-out: LE_1a (EC50)

COc1cc(F)cc2c(O[C@@H]3C[C@H]4C(=O)N[C@]5(C(=O)NS(=O)(=O)C6(CF)CC6)C[C@H]5/C=C\CC[C@H](C)C[C@@H](C)[C@H](NC(=O)OC(C)(C)C)C(=O)N4C3)nccc12 [Compound 3173, tert-butyl ((2R,6S,7R,9S,13aS,14aR,16aS,Z)-2-((7-fluoro-5-methoxyisoquinolin-1-yl)oxy)-14a-(((1-(fluoromethyl)cyclopropyl)sulfonyl)carbamoyl)-7,9-dimethyl-5,16-dioxo-1,2,3,5,6,7,8,9,10,11,13a,14,14a,15,16,16a-hexadecahydrocyclopropa[e]pyrrolo[1,2-a][1,4]diazacyclopentadecin-6-yl)carbamate]
pEC50 [1, 3]: 6.99 to 8.32
pEC50 [2, 4]: 6.99 to 8.32

COc1cc(F)cc2c(O[C@@H]3C[C@H]4C(=O)N[C@]5(C(=O)NS(=O)(=O)C6(CF)CC6)C[C@H]5/C=C\CC[C@@H](C)C[C@@H](C)[C@H](NC(=O)OC(C)(C)C)C(=O)N4C3)nccc12 [Compound 3174, tert-butyl ((2R,6S,7R,9R,13aS,14aR,16aS,Z)-2-((7-fluoro-5-methoxyisoquinolin-1-yl)oxy)-14a-(((1-(fluoromethyl)cyclopropyl)sulfonyl)carbamoyl)-7,9-dimethyl-5,16-dioxo-1,2,3,5,6,7,8,9,10,11,13a,14,14a,15,16,16a-hexadecahydrocyclopropa[e]pyrrolo[1,2-a][1,4]diazacyclopentadecin-6-yl)carbamate]
pEC50 [1, 3]: > 8.26
pEC50 [2, 4]: > 8.26

COc1cc(F)cc2c(O[C@@H]3C[C@H]4C(=O)N[C@]5(C(=O)NS(=O)(=O)C6(CF)CC6)C[C@H]5/C=C\CC[C@H](C)C[C@@H](C)[C@H](NC(=O)OC(C)(C)C(F)(F)F)C(=O)N4C3)nccc12 [Compound 3175, 1,1,1-trifluoro-2-methylpropan-2-yl((2R,6S,7R,9S,13aS,14aR,16aS,Z)-2-((7-fluoro-5-methoxyisoquinolin-1-yl)oxy)-14a-(((1-(fluoromethyl)cyclopropyl)sulfonyl)carbamoyl)-7,9-dimethyl-5,16-dioxo-1,2,3,5,6,7,8,9,10,11,13a,14,14a,15,16,16a-hexadecahydrocyclopropa[e]pyrrolo[1,2-a][1,4]diazacyclopentadecin-6-yl)carbamate]
pEC50 [1, 3]: 6.99 to 8.32
pEC50 [2, 4]: 6.99 to 8.32

COc1cc(F)cc2c(O[C@@H]3C[C@H]4C(=O)N[C@]5(C(=O)NS(=O)(=O)C6(CF)CC6)C[C@H]5/C=C\CC[C@@H](C)C[C@@H](C)[C@H](NC(=O)OC(C)(C)C(F)(F)F)C(=O)N4C3)nccc12 [Compound 3176, 1,1,1-trifluoro-2-methylpropan-2-yl((2R,6S,7R,9R,13aS,14aR,16aS,Z)-2-((7-fluoro-5-methoxyisoquinolin-1-yl)oxy)-14a-(((1-(fluoromethyl)cyclopropyl)sulfonyl)carbamoyl)-7,9-dimethyl-5,16-dioxo-1,2,3,5,6,7,8,9,10,11,13a,14,14a,15,16,16a-hexadecahydrocyclopropa[e]pyrrolo[1,2-a][1,4]diazacyclopentadecin-6-yl)carbamate]
pEC50 [1, 3]: > 8.26
pEC50 [2, 4]: > 8.26

COc1cc(F)cc2c(O[C@@H]3C[C@H]4C(=O)N[C@]5(C(=O)NS(=O)(=O)C6(CF)CC6)C[C@H]5/C=C\CC[C@@H](C)C[C@@H](C)[C@H](NC(=O)O[C@H](C)C(F)(F)F)C(=O)N4C3)nccc12 [Compound 3178, (R)-1,1,1-trifluoropropan-2-yl ((2R,6S,7R,9R,13aS,14aR,16aS,Z)-2-((7-fluoro-5-methoxyisoquinolin-1-yl)oxy)-14a-(((1-(fluoromethyl)cyclopropyl)sulfonyl)carbamoyl)-7,9-dimethyl-5,16-dioxo-1,2,3,5,6,7,8,9,10,11,13a,14,14a,15,16,16a-hexadecahydrocyclopropa[e]pyrrolo[1,2-a][1,4]diazacyclopentadecin-6-yl)carbamate]
pEC50 [1, 3]: > 8.26
pEC50 [1, 5]: 9.21
pEC50 [2, 4]: > 8.26
pEC50 [2, 6]: 8.50

COc1cc(F)cc2c(O[C@@H]3C[C@H]4C(=O)N[C@]5(C(=O)NS(=O)(=O)C6(CF)CC6)C[C@H]5/C=C\CC[C@H](C)C[C@@H](C)[C@H](NC(=O)OC(C)(C)C(C)(F)F)C(=O)N4C3)nccc12 [Compound 3179, 3,3-difluoro-2-methylbutan-2-yl((2R,6S,7R,9S,13aS,14aR,16aS,Z)-2-((7-fluoro-5-methoxyisoquinolin-1-yl)oxy)-14a-(((1-(fluoromethyl)cyclopropyl)sulfonyl)carbamoyl)-7,9-dimethyl-5,16-dioxo-1,2,3,5,6,7,8,9,10,11,13a,14,14a,15,16,16a-hexadecahydrocyclopropa[e]pyrrolo[1,2-a][1,4]diazacyclopentadecin-6-yl)carbamate]
pEC50 [1, 3]: 6.99 to 8.32
pEC50 [2, 4]: 6.99 to 8.32

COc1cc(F)cc2c(O[C@@H]3C[C@H]4C(=O)N[C@]5(C(=O)NS(=O)(=O)C6(CF)CC6)C[C@H]5/C=C\CC[C@@H](C)C[C@@H](C)[C@H](NC(=O)OC(C)(C)C(C)(F)F)C(=O)N4C3)nccc12 [Compound 3180, 3,3-difluoro-2-methylbutan-2-yl((2R,6S,7R,9R,13aS,14aR,16aS,Z)-2-((7-fluoro-5-methoxyisoquinolin-1-yl)oxy)-14a-(((1-(fluoromethyl)cyclopropyl)sulfonyl)carbamoyl)-7,9-dimethyl-5,16-dioxo-1,2,3,5,6,7,8,9,10,11,13a,14,14a,15,16,16a-hexadecahydrocyclopropa[e]pyrrolo[1,2-a][1,4]diazacyclopentadecin-6-yl)carbamate]
pEC50 [1, 3]: > 8.26
pEC50 [2, 4]: > 8.26

COc1cc2cc(-c3ccc(OC(C)C)cc3)nc(O[C@@H]3C[C@H]4C(=O)N[C@]5(C(=O)NS(=O)(=O)C6CC6)C[C@H]5/C=C\CC[C@H](C)C[C@@H](C)[C@H](NC(=O)OC(C)(C)C)C(=O)N4C3)c2cc1F [Compound 3181, tert-butyl ((2R,6S,7R,9S,13aS,14aR,16aS,Z)-14a-((cyclopropylsulfonyl)carbamoyl)-2-((7-fluoro-3-(4-isopropoxyphenyl)-6-methoxyisoquinolin-1-yl)oxy)-7,9-dimethyl-5,16-dioxo-1,2,3,5,6,7,8,9,10,11,13a,14,14a,15,16,16a-hexadecahydrocyclopropa[e]pyrrolo[1,2-a][1,4]diazacyclopentadecin-6-yl)carbamate]
pEC50 [1, 3]: > 8.26
pEC50 [2, 4]: 6.99 to 8.32

COc1cc2cc(-c3ccc(OC(C)C)cc3)nc(O[C@@H]3C[C@H]4C(=O)N[C@]5(C(=O)NS(=O)(=O)C6CC6)C[C@H]5/C=C\CC[C@@H](C)C[C@@H](C)[C@H](NC(=O)OC(C)(C)C)C(=O)N4C3)c2cc1F [Compound 3182, tert-butyl ((2R,6S,7R,9R,13aS,14aR,16aS,Z)-14a-((cyclopropylsulfonyl)carbamoyl)-2-((7-fluoro-3-(4-isopropoxyphenyl)-6-methoxyisoquinolin-1-yl)oxy)-7,9-dimethyl-5,16-dioxo-1,2,3,5,6,7,8,9,10,11,13a,14,14a,15,16,16a-hexadecahydrocyclopropa[e]pyrrolo[1,2-a][1,4]diazacyclopentadecin-6-yl)carbamate]
pEC50 [1, 3]: > 8.26
pEC50 [2, 4]: > 8.26

COc1cc2cc(-c3ccc(OC(C)C)cc3)nc(O[C@@H]3C[C@H]4C(=O)N[C@]5(C(=O)NS(=O)(=O)C6(C)CC6)C[C@H]5/C=C\CC[C@H](C)C[C@@H](C)[C@H](NC(=O)OC(C)(C)C)C(=O)N4C3)c2cc1F [Compound 3183, tert-butyl ((2R,6S,7R,9S,13aS,14aR,16aS,Z)-2-((7-fluoro-3-(4-isopropoxyphenyl)-6-methoxyisoquinolin-1-yl)oxy)-7,9-dimethyl-14a-(((1-methylcyclopropyl)sulfonyl)carbamoyl)-5,16-dioxo-1,2,3,5,6,7,8,9,10,11,13a,14,14a,15,16,16a-hexadecahydrocyclopropa[e]pyrrolo[1,2-a][1,4]diazacyclopentadecin-6-yl)carbamate]
pEC50 [1, 3]: > 8.26
pEC50 [2, 4]: 6.99 to 8.32

COc1cc2cc(-c3ccc(OC(C)C)cc3)nc(O[C@@H]3C[C@H]4C(=O)N[C@]5(C(=O)NS(=O)(=O)C6(C)CC6)C[C@H]5/C=C\CC[C@@H](C)C[C@@H](C)[C@H](NC(=O)OC(C)(C)C)C(=O)N4C3)c2cc1F [Compound 3184, tert-butyl ((2R,6S,7R,9R,13aS,14aR,16aS,Z)-2-((7-fluoro-3-(4-isopropoxyphenyl)-6-methoxyisoquinolin-1-yl)oxy)-7,9-dimethyl-14a-(((1-methylcyclopropyl)sulfonyl)carbamoyl)-5,16-dioxo-1,2,3,5,6,7,8,9,10,11,13a,14,14a,15,16,16a-hexadecahydrocyclopropa[e]pyrrolo[1,2-a][1,4]diazacyclopentadecin-6-yl)carbamate]
pEC50 [1, 3]: > 8.26
pEC50 [1, 5]: 8.90
pEC50 [2, 4]: > 8.26
pEC50 [2, 6]: 8.56

COc1cc2cc(-c3ccc(OC(C)C)cc3)nc(O[C@@H]3C[C@H]4C(=O)N[C@]5(C(=O)NS(=O)(=O)C6(C)CC6)C[C@H]5/C=C\CC[C@H](C)C[C@@H](C)[C@H](NC(=O)OC(C)(C)C(F)(F)F)C(=O)N4C3)c2cc1F [Compound 3185, 1,1,1-trifluoro-2-methylpropan-2-yl((2R,6S,7R,9S,13aS,14aR,16aS,Z)-2-((7-fluoro-3-(4-isopropoxyphenyl)-6-methoxyisoquinolin-1-yl)oxy)-7,9-dimethyl-14a-(((1-methylcyclopropyl)sulfonyl)carbamoyl)-5,16-dioxo-1,2,3,5,6,7,8,9,10,11,13a,14,14a,15,16,16a-hexadecahydrocyclopropa[e]pyrrolo[1,2-a][1,4]diazacyclopentadecin-6-yl)carbamate]
pEC50 ([1]; HCV genotype 1b replicon luciferase, read-out: LE_1b (EC50, range)): 6.99 to 8.32
pEC50 ([2]; HCV genotype 1a replicon luciferase, read-out: LE_1a (EC50, range)): 6.99 to 8.32
